#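 Cultured in 96-well plates, cells were exposed to test compound for 48 hours across five concentrations. TGI is the concentration that stops growth completely.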
# Experiments:
# Assay in all cases: NCI tumour cell line growth inhibition, 48 h
# DMS 114 small cell lung = system: DMS 114 small cell lung
# SNB-19 CNS = system: SNB-19 CNS
# A549 NSCLC = system: A549 NSCLC
# ACHN renal = system: ACHN renal
# UACC-62 melanoma = system: UACC-62 melanoma
# M14 melanoma = system: M14 melanoma
# HOP-62 NSCLC = system: HOP-62 NSCLC
# OVCAR-3 ovarian = system: OVCAR-3 ovarian
# HT29 colon = system: HT29 colon
# NCI-H23 lung = system: NCI-H23 lung
# KM20L2 colon = system: KM20L2 colon
# SF-539 CNS = system: SF-539 CNS
# HCT-116 colon = system: HCT-116 colon
# SNB-78 CNS = system: SNB-78 CNS
# LXFL 529 NSCLC = system: LXFL 529 NSCLC
# K-562 leukemia = system: K-562 leukemia
# DLD-1 colon = system: DLD-1 colon
# EKVX NSCLC = system: EKVX NSCLC
# SK-OV-3 ovarian = system: SK-OV-3 ovarian
# OVCAR-5 ovarian = system: OVCAR-5 ovarian
# SK-MEL-5 melanoma = system: SK-MEL-5 melanoma
# CCRF-CEM leukemia = system: CCRF-CEM leukemia
# RXF-631 renal = system: RXF-631 renal
# SN12C renal = system: SN12C renal
# NCI-H226 lung = system: NCI-H226 lung
# U251 CNS = system: U251 CNS
# NCI-H522 lung = system: NCI-H522 lung
# RXF 393 renal = system: RXF 393 renal
# SF-268 CNS = system: SF-268 CNS
# A498 renal = system: A498 renal
# SW-620 colon = system: SW-620 colon
# HOP-18 NSCLC = system: HOP-18 NSCLC
# MALME-3M melanoma = system: MALME-3M melanoma
# XF 498 CNS = system: XF 498 CNS
# CAKI-1 renal = system: CAKI-1 renal
# OVCAR-8 ovarian = system: OVCAR-8 ovarian
# HL-60(TB) leukemia = system: HL-60(TB) leukemia
# M19-MEL melanoma = system: M19-MEL melanoma
# HCC-2998 colon = system: HCC-2998 colon
# OVCAR-4 ovarian = system: OVCAR-4 ovarian
# TK-10 renal = system: TK-10 renal
# DMS 273 small cell lung = system: DMS 273 small cell lung
# UO-31 renal = system: UO-31 renal
# 786-0 renal = system: 786-0 renal
# NCI-H460 lung = system: NCI-H460 lung
# UACC-257 melanoma = system: UACC-257 melanoma
# HOP-92 NSCLC = system: HOP-92 NSCLC
# IGROV1 ovarian = system: IGROV1 ovarian
# SF-295 CNS = system: SF-295 CNS
# COLO 205 colon = system: COLO 205 colon
# LOX IMVI melanoma = system: LOX IMVI melanoma
# KM12 colon = system: KM12 colon
# SNB-75 CNS = system: SNB-75 CNS
# SK-MEL-28 melanoma = system: SK-MEL-28 melanoma
# RPMI-8226 leukemia = system: RPMI-8226 leukemia
# HCT-15 colon = system: HCT-15 colon
# SR leukemia = system: SR leukemia
# SK-MEL-2 melanoma = system: SK-MEL-2 melanoma
# MOLT-4 leukemia = system: MOLT-4 leukemia
smiles,measurement,setting,value
CN1C2(c3ccccc3)c3c(-c4ccccc4)sc(-c4ccccc4)c3C1(c1ccccc1)C1C(=O)N(c3ccccc3)C(=O)C12 (stereo unspecified),TGI,DMS 114 small cell lung,> 100 µM
same,TGI,SNB-19 CNS,> 100 µM
same,TGI,A549 NSCLC,> 100 µM
same,TGI,ACHN renal,> 100 µM
same,TGI,UACC-62 melanoma,> 100 µM
same,TGI,M14 melanoma,> 100 µM
same,TGI,HOP-62 NSCLC,> 100 µM
same,TGI,OVCAR-3 ovarian,> 100 µM
same,TGI,HT29 colon,> 100 µM
same,TGI,NCI-H23 lung,> 100 µM
same,TGI,KM20L2 colon,> 100 µM
same,TGI,SF-539 CNS,> 100 µM
same,TGI,HCT-116 colon,> 100 µM
same,TGI,SNB-78 CNS,> 100 µM
same,TGI,LXFL 529 NSCLC,> 100 µM
same,TGI,K-562 leukemia,> 100 µM
same,TGI,DLD-1 colon,> 100 µM
same,TGI,EKVX NSCLC,> 100 µM
same,TGI,SK-OV-3 ovarian,> 100 µM
same,TGI,OVCAR-5 ovarian,> 100 µM
same,TGI,SK-MEL-5 melanoma,> 100 µM
same,TGI,CCRF-CEM leukemia,> 100 µM
same,TGI,RXF-631 renal,> 100 µM
same,TGI,SN12C renal,> 100 µM
same,TGI,NCI-H226 lung,> 100 µM
same,TGI,U251 CNS,> 100 µM
same,TGI,NCI-H522 lung,> 100 µM
same,TGI,RXF 393 renal,> 100 µM
same,TGI,SF-268 CNS,> 100 µM
same,TGI,A498 renal,> 100 µM
same,TGI,SW-620 colon,> 100 µM
same,TGI,HOP-18 NSCLC,> 100 µM
same,TGI,MALME-3M melanoma,> 100 µM
same,TGI,XF 498 CNS,> 100 µM
same,TGI,CAKI-1 renal,> 100 µM
same,TGI,OVCAR-8 ovarian,> 100 µM
same,TGI,HL-60(TB) leukemia,> 100 µM
same,TGI,M19-MEL melanoma,> 100 µM
same,TGI,HCC-2998 colon,> 100 µM
same,TGI,OVCAR-4 ovarian,> 100 µM
same,TGI,TK-10 renal,> 100 µM
same,TGI,DMS 273 small cell lung,> 100 µM
same,TGI,UO-31 renal,> 100 µM
same,TGI,786-0 renal,> 100 µM
same,TGI,NCI-H460 lung,> 100 µM
same,TGI,UACC-257 melanoma,> 100 µM
same,TGI,HOP-92 NSCLC,> 100 µM
same,TGI,IGROV1 ovarian,> 100 µM
same,TGI,SF-295 CNS,> 100 µM
same,TGI,COLO 205 colon,> 100 µM
same,TGI,LOX IMVI melanoma,> 100 µM
same,TGI,KM12 colon,> 100 µM
same,TGI,SNB-75 CNS,> 100 µM
same,TGI,SK-MEL-28 melanoma,> 100 µM
same,TGI,RPMI-8226 leukemia,> 100 µM
CC(=O)C1CC=C(C)CC1 (stereo unspecified),TGI,DMS 114 small cell lung,> 100 µM
same,TGI,SNB-19 CNS,> 100 µM
same,TGI,A549 NSCLC,> 100 µM
same,TGI,ACHN renal,> 100 µM
same,TGI,UACC-62 melanoma,> 100 µM
same,TGI,M14 melanoma,> 100 µM
same,TGI,HOP-62 NSCLC,> 100 µM
same,TGI,OVCAR-3 ovarian,> 100 µM
same,TGI,HT29 colon,> 100 µM
same,TGI,NCI-H23 lung,> 100 µM
same,TGI,KM20L2 colon,> 100 µM
same,TGI,SF-539 CNS,> 100 µM
same,TGI,HCT-116 colon,> 100 µM
same,TGI,SNB-78 CNS,> 100 µM
same,TGI,LXFL 529 NSCLC,> 100 µM
same,TGI,K-562 leukemia,> 100 µM
same,TGI,DLD-1 colon,> 100 µM
same,TGI,EKVX NSCLC,> 100 µM
same,TGI,SK-OV-3 ovarian,> 100 µM
same,TGI,OVCAR-5 ovarian,> 100 µM
same,TGI,SK-MEL-5 melanoma,> 100 µM
same,TGI,CCRF-CEM leukemia,> 100 µM
same,TGI,RXF-631 renal,> 100 µM
same,TGI,SN12C renal,> 100 µM
same,TGI,NCI-H226 lung,> 100 µM
same,TGI,U251 CNS,> 100 µM
same,TGI,NCI-H522 lung,> 100 µM
same,TGI,HCT-15 colon,> 100 µM
same,TGI,RXF 393 renal,> 100 µM
same,TGI,SR leukemia,> 100 µM
same,TGI,SF-268 CNS,> 100 µM
same,TGI,A498 renal,> 100 µM
same,TGI,SW-620 colon,> 100 µM
same,TGI,HOP-18 NSCLC,> 100 µM
same,TGI,MALME-3M melanoma,> 100 µM
same,TGI,SK-MEL-2 melanoma,> 100 µM
same,TGI,XF 498 CNS,> 100 µM
same,TGI,CAKI-1 renal,> 100 µM
same,TGI,OVCAR-8 ovarian,> 100 µM
same,TGI,HL-60(TB) leukemia,> 100 µM
same,TGI,M19-MEL melanoma,> 100 µM
same,TGI,MOLT-4 leukemia,> 100 µM
same,TGI,HCC-2998 colon,> 100 µM
same,TGI,OVCAR-4 ovarian,> 100 µM
same,TGI,TK-10 renal,> 100 µM
same,TGI,DMS 273 small cell lung,> 100 µM
same,TGI,UO-31 renal,> 100 µM
same,TGI,786-0 renal,> 100 µM
same,TGI,NCI-H460 lung,> 100 µM
same,TGI,UACC-257 melanoma,> 100 µM
same,TGI,HOP-92 NSCLC,> 100 µM
same,TGI,IGROV1 ovarian,> 100 µM
same,TGI,SF-295 CNS,> 100 µM
same,TGI,COLO 205 colon,> 100 µM
same,TGI,LOX IMVI melanoma,> 100 µM
same,TGI,KM12 colon,> 100 µM
same,TGI,SNB-75 CNS,> 100 µM
same,TGI,SK-MEL-28 melanoma,> 100 µM
same,TGI,RPMI-8226 leukemia,> 100 µM
COc1cc2c(c(C)c1O)[C@H]1COc3ccccc3[C@H]1O2,TGI,DMS 114 small cell lung,47.6 µM
same,TGI,SNB-19 CNS,26.7 µM
same,TGI,A549 NSCLC,81.6 µM
same,TGI,ACHN renal,> 100 µM
same,TGI,M14 melanoma,24.6 µM
same,TGI,HOP-62 NSCLC,> 100 µM
same,TGI,OVCAR-3 ovarian,> 100 µM
same,TGI,HT29 colon,> 100 µM
same,TGI,NCI-H23 lung,64.2 µM
same,TGI,KM20L2 colon,63.9 µM
same,TGI,SF-539 CNS,36.7 µM
same,TGI,HCT-116 colon,18.7 µM
same,TGI,SNB-78 CNS,80.7 µM
same,TGI,LXFL 529 NSCLC,31.1 µM
same,TGI,K-562 leukemia,56.5 µM
same,TGI,DLD-1 colon,> 100 µM
same,TGI,EKVX NSCLC,74.7 µM
same,TGI,SK-OV-3 ovarian,> 100 µM
same,TGI,OVCAR-5 ovarian,> 100 µM
same,TGI,SK-MEL-5 melanoma,22.9 µM
same,TGI,CCRF-CEM leukemia,56.6 µM
same,TGI,RXF-631 renal,29.8 µM
same,TGI,NCI-H226 lung,34.5 µM
same,TGI,NCI-H522 lung,13.5 µM
same,TGI,HCT-15 colon,18.5 µM
same,TGI,RXF 393 renal,54 µM
same,TGI,SF-268 CNS,96.1 µM
same,TGI,A498 renal,> 100 µM
same,TGI,HOP-18 NSCLC,35.6 µM
same,TGI,MALME-3M melanoma,89.1 µM
same,TGI,SK-MEL-2 melanoma,> 100 µM
same,TGI,CAKI-1 renal,30 µM
same,TGI,OVCAR-8 ovarian,67.3 µM
same,TGI,HL-60(TB) leukemia,12.7 µM
same,TGI,M19-MEL melanoma,25 µM
same,TGI,MOLT-4 leukemia,42.7 µM
same,TGI,OVCAR-4 ovarian,89.3 µM
same,TGI,TK-10 renal,80.8 µM
same,TGI,DMS 273 small cell lung,20.5 µM
same,TGI,UO-31 renal,35.5 µM
same,TGI,786-0 renal,42.6 µM
same,TGI,NCI-H460 lung,31.8 µM
same,TGI,UACC-257 melanoma,52.9 µM
same,TGI,HOP-92 NSCLC,47.6 µM
same,TGI,IGROV1 ovarian,31.3 µM
same,TGI,SF-295 CNS,> 100 µM
same,TGI,COLO 205 colon,52.2 µM
same,TGI,LOX IMVI melanoma,14.7 µM
same,TGI,KM12 colon,> 100 µM
same,TGI,SNB-75 CNS,23.7 µM
same,TGI,SK-MEL-28 melanoma,> 100 µM
same,TGI,RPMI-8226 leukemia,75.3 µM

# From PubChem BioAssay (NCI)
